{
  "source": "patent US20060029654A1",
  "about": "“Analgesic patch for sports injury rehabilitation medicine and method to alleviate pain” (priority 2004, published 2006)",
  "test_system": "pain in the right shoulder and right lateral thigh (right rotator cuff tendonitis and right lateral fasciaitis)",
  "details": "prior treatment history; injection into the pain trigger zone",
  "data": [
    {"molecule": "C[C@]12CCC(=O)C=C1CC[C@@H]1[C@@H]2C(=O)C[C@@]2(C)[C@H]1CC[C@]2(O)C(=O)CO", "note": "[cortisone]", "values": [
      {"measurement": "duration of temporary pain relief", "result": "4 to 6", "unit": "weeks"}
    ]}
  ]
}
